For experiment [1], the system named is human foreskin fibroblasts (HFF). The experiment in a line: Cytotoxicity assay (IC50 determination), crystal violet staining. In kind it is cell-based. The conditions noted are these: Fibroblast, 336 h, concentration required to inhibit cellular proliferation by 50%, 96-well, 14 day incubation, crystal violet absorbance 620nm. How it is done: (§1) Newborn human foreskins were obtained immediately post-circumcision and placed in minimal essential medium (MEM) supplemented with vancomycin, fungizone, penicillin and gentamycin (all present at standard concentrations) and maintained for four hours under tissue culture conditions (37°C, 5% CO2). Supplemented MEM was then removed and the foreskin material macerated. Tissue fragments were then washed exhaustively (using supplemented MEM) to remove residual erythrocyte contamination.
The erythrocyte-free cell fragments were then exposed to trypsin solution (0.25%) for 15 min with continuous stirring. […]
HFF were seeded into 96-well tissue culture plates at a concentration of 2.5x10^4 cells/ml (100µl MEM with 10% FBS was used as the culture medium) and maintained under tissue culture conditions for 24H prior to experimentation. […] To the first row of each 96-well plate, 125 µl of control media or experimental drug CT1146-26 or CT1146-28 (initial concentration determined by the overall concentration range desired) was added in triplicate wells. […]
Following the incubation period, medium was removed from all wells and the cells stained with 0.1% crystal violet solution for 30 min followed by several wash cycles to remove residual stain. The crystal violet stained plates were then allowed to air dry for 24H prior to reading well absorbance values (620nm) using a Skatron plate reader. […]

The subject of experiment [2] is human cytomegalovirus (CMV). The experiment in a line: Plaque reduction assay using semi-solid overlay (EC50 determination). It is filed as cell-based. The conditions noted are these: for EC50: Human betaherpesvirus 5, 336 h, concentration required to inhibit viral cytopathogenicity by 50%, CMV plaques in HFF, agarose overlay, 14 days, drug range 100 to 0.03 µg/ml; for SI: Selectivity Index, SI = IC50/EC50. As to the method:
as §1
The erythrocyte-free cell fragments were then exposed to trypsin solution (0.25%) for 15 min with continuous stirring. Tissue fragments were then allowed to settle out of suspension and the supernatant collected and passed through sterile cheesecloth into a flask containing MEM and 10% fetal bovine serum (FBS). The cheesecloth was washed with an additional volume of MEM containing 10% FBS (The flask containing MEM and 10% FBS was maintained on ice throughout the trypsinization procedure). The trypsinization procedure was repeated using fresh trypsin solution, until no additional cell removal from tissue fragments was observed. Cells removed by this process are predominantly human foreskin fibroblasts (HFF).
Cells contained in MEM with 10% FBS were pelleted by centrifugation (≅ 1000 RPM, 4°C, 10 min), the supernatant discarded and the pelleted cells suspended in a minimal volume of MEM with 10% FBS. HFF isolates were then plated into T-25 tissue culture flasks (the number of primary culture flasks used was based on the volume of the recovered cell pellet). HFF isolates were then maintained under tissue culture conditions (37°C, 5% CO2) until confluent. Primary cultures of HFF were sequentially expanded into larger format culture flasks using standard tissue culture procedures. HFF were maintained in the presence of vancomycin and fungizone through passage four.
HFF are plated into 6-well tissue culture plates and maintained under tissue culture conditions for approximately two days prior to use. On the date of assay, experimental drug solutions are prepared as 2X concentrations in 2X MEM. Serial dilutions of experimental drug are then performed (1:5) using 2X MEM. The approximate concentration range for experimental agents being 200 to 0.06 µg/ml. Each drug or control solution was then diluted 1:1 with 0.8% agarose solution. Following dilution with agarose solution, the final experimental drug concentration range was 100 to 0.03 µg/ml, with a final agarose overlay concentration of 0.4%. Viral material (CMV) was diluted in MEM with 10% FBS to yield a concentration of virus producing 20-30 plaques per well. […]
Following incubations, HFF were stained for 4-6H with a 1.5% solution of neutral red. The neutral red/agarose/MEM mixture is aspirated and viral plaques counted using a 10X steriomicroscope. […]

`CC(C)NC(=O)c1cn(C2OC(COP(=O)(O)O)C(O)C2O)c(=O)nc1N` (stereo not drawn) [CT1146-26] registered an IC50 in experiment [1] above 100 µg/mL. Also, in experiment [2], the EC50 is below 0.03 µg/mL and the SI is listed as above 3333.

In the case of `CCCCNC(=O)c1cn(C2OC(COP(=O)(O)O)C(O)C2O)c(=O)nc1N` (stereo not drawn) [CT1146-28], in experiment [1], the IC50 was above 100 µg/mL. Further, in experiment [2], the EC50 was below 0.03 µg/mL and the SI is listed as above 3333.

The values are drawn from EP0828750B1, “PALLADIUM CATALYZED NUCLEOSIDE MODIFICATION METHODS USING NUCLEOPHILES AND CARBON MONOXIDE” (EC Technology LLC, priority 1995, dated 1996).
